From patent US9180155B2, “Compositions from Nigella sativa” (Bio Nexus, Ltd, priority 2013, dated 2015)

Key:
[1] = tested on: Caco-2 monolayers; test: t10-CLA-induced loss of TEER in Caco-2 monolayers; assay type: cell-based, human; conditions: t10-CLA 50 μM control = 100; μg TQ equivalents/mL: Thymoquinone 5.0, NS8 0.11, NS9 0.99, NS10 0.012, NSSpent#2 0.0005; NSSpent#1 5 μg/mL
Source text: The protocol for growing and differentiation the human Caco-2 colon andenocarcinoma cells was a modification of Protocol 3 as described by Yamashita et al. [[…]., and Furuyama, Y. 2002) New and better protocols for a short-term Caco-2 cell culture system, J Pharm Sci 91, 669-679]. Caco-2 Human Colon Adenocarcinoma cells were obtained from ATCC (Rockville, Md.; catalog #HTB-37) and maintained in a growth media: DMEM (Dulbecco's Modified Eagles Medium 1×) containing L-glutamine, glucose; Cellgro catalog #35-010CV with the following additions: (1) Penicillin (5,000 IU/mL)/Streptomycin (5,000 μg/mL) Cellgro catalog #30-001C1, (2) 10% FBS-Fetal Bovine Serum, Characterized; Hyclone catalog #SH30071.3, and (3) 1% NEAA-Non Essential Amino Acids; Cellgro catalog #25-025-CI; cells were cultured at 37 C in a humidified air-5% CO2 atmosphere in T175 flasks. BIOCOAT^R HTS Caco-2 Assay System kits (Becton Dickinson, N.J.; catalog #354801) consisting of 24-well fibrillar collagen coated inserts and feeder trays were used in all experiments and plated as follows. Media was removed from the T175 flasks and cells were washed with 10 mLs PBS (phosphate buffered saline 1× without Ca^++, without Mg^++; Cellgro #25-053-CI). […]

[2] = tested on: adiponectin secretion in 3T3-L1 adipocytes; test: Adiponectin secretion in t10-CLA-stimulated 3T3-L1 adipocytes; assay type: cell-based, murine
Procedure: The 3T3-L1 murine fibroblast model as used in Example 4 was used in this experiments. Test materials were added four hours prior to the addition of t10-CLA at a concentration of 50 μM. Following overnight incubation, the supernatant media were sampled for determination of IL-6 and adiponectin. The adiponectin secreted into the medium was quantified using the Mouse Adiponectin Quantikine® Immunoassay kit with no modifications (R&D Systems, Minneapolis, Minn.). […] Test materials and were assayed in duplicate, while solvent controls were replicated eight times. IL-6 and adiponectin secretion were represented relative to the IL-6 and adiponectin secretion of the t10-CLA only controls as the IL-6 and adiponectin index and differences among the means were analyzed by the student's t-test assuming a five percent probability of a type I error (Excel; Microsoft, Redmond, Wash.).

[3] = tested on: IL-6 secretion in 3T3-L1 adipocytes; test: IL-6 secretion in t10-CLA-stimulated 3T3-L1 adipocytes; assay type: cell-based, murine
Procedure: The 3T3-L1 murine fibroblast model as used in Example 4 was used in this experiments. Test materials were added four hours prior to the addition of t10-CLA at a concentration of 50 μM. Following overnight incubation, the supernatant media were sampled for determination of IL-6 and adiponectin. The IL-6 secreted into the medium in response to […] stimulation was quantified using the Quantikine® Mouse IL-6 Immunoassay kit with no modifications (R&D Systems, Minneapolis, Minn.). […] All supernatant media samples were diluted 1:30 for quantification. Test materials and were assayed in duplicate, while solvent controls were replicated eight times. IL-6 and adiponectin secretion were represented relative to the IL-6 and adiponectin secretion of the t10-CLA only controls as the IL-6 and adiponectin index and differences among the means were analyzed by the student's t-test assuming a five percent probability of a type I error (Excel; Microsoft, Redmond, Wash.).

[4] = tested on: AMPK; test: AMPK activation (pT172-AMPK) in C2C12 myocytes; assay type: cell-based, Mouse; conditions: 1 mM
Procedure: Mouse C2C12 myoblasts were obtained from American Type Culture Collection (Manassas, Va.), and were maintained in Dulbecco's modified Eagle's medium (DMEM) supplemented with 10% fetal bovine serum at 37° C. under a humidified atmosphere of 5% CO2.
C2C12 cells were seeded at an initial density of 6×10^4 cells/cm^2 in 24-well plates. For two days, the cells were allowed grow to reach confluence. Following confluence, the cells were forced to differentiate into myocytes by culturing in DMEM supplemented with 2% horse serum for seven days.
On Day 8 to 10 post differentiation, C2C12 myocytes were incubated in serum-free DMEM plus 0.5% BSA (bovine serum albumin) for three hours. […]
pT^172-AMPK was quantified using the Biosource AMPK Immunoassay Kit (Camarillo, Calif.) without modification. Protein content of the cell lysates was determined with the Active Motif fluorescent protein assay reagent (Carlsbad Calif., Hoefelschweiger, B. K., Duerkop, A., and Wolfbeis, O. S, Novel type of general protein assay using a chromogenic and fluorogenic amine-reactive probe. Anal Biochem 2005, 344, 122-9). A Packard Fluorocount spectrofluorometer (Model#BF 10000, Meridan, Conn.) was used for protein determination and a MEL312e BIO-KINETICS READER (Bio-Tek Instruments, Winooski, Vt.) was used for quantification of pT^172-AMPK. […]

[5] = t10-CLA 50 μM control = 100, μg TQ equivalents/mL: Thymoquinone 5.0, NS8 0.11, NS9 0.99, NS10 0.012, NSSpent#2 0.0005, NSSpent#1 5 μg/mL

Row | Structure (SMILES) | Relative Loss of TEER [1] | reduction in adiponectin secretion relative to controls ([2]; 50 μM, overnight) [%] | Adiponectin Index [2, 5] | increase in IL-6 secretion relative to controls ([3]; 50 μM, overnight) [fold] | IL-6 Index [3, 5] | increase of pT172-AMPK relative to DMSO negative controls ([4]; 30 min, average over ten independent assays (95% CI=1.26-2.21)) [fold] | activation of AMPK ([4]; in assays run with N. sativa supercritical CO2 extracts) [fold]
1 | CCCCC/C=C\C=C\CCCCCCCCC(=O)O (single isomer, unassigned) [t10-CLA, Trans-10,Cis12-Conjugated Linoleic Acid Isomer] | 100 ± 5.81 | 65 | 100 ± 14 | 8 | 100 ± 11 |  | 
2 | NC(=O)c1ncn([C@@H]2O[C@H](CO)[C@@H](O)[C@H]2O)c1N [AICAR, 5-Aminoimidazole-4-carboxamide ribonucleoside] |  |  |  |  |  | 1.67 | 1.45
